Activity calls are given as the source filed them. The rule behind the calls is not given here.
Assays:
[1] = Dissociation constant, pKa of the compound by potentiometric titration analysis; type: physicochemical
[2] = target: T1, Acetylcholinesterase (Electrophorus electricus, UniProt O42275); assay: (§1) Competitive inhibition of electric eel AChE using acetylthiocholine chloride as substrate at pH 8.25 by Michaelis-Menten plot analysis
[3] = target: T1, Acetylcholinesterase; assay: (§2) Noncompetitive inhibition of electric eel AChE using acetylthiocholine chloride as substrate at pH 7 by Michaelis-Menten plot analysis
[4] = target: T1, Acetylcholinesterase; assay: (§3) Noncompetitive inhibition of electric eel AChE using acetylthiocholine chloride as substrate at pH 8.25 by Michaelis-Menten plot analysis
[5] = target: T1, Acetylcholinesterase; assay: (§4) Competitive inhibition of electric eel AChE using acetylthiocholine chloride as substrate at pH 7 by Michaelis-Menten plot analysis
[6] = target: Acetylcholinesterase (Electrophorus electricus) (UniProt O42275); assay: as §1
Sequence of Acetylcholinesterase (Electrophorus electricus) (O42275 24-633 limits assumed): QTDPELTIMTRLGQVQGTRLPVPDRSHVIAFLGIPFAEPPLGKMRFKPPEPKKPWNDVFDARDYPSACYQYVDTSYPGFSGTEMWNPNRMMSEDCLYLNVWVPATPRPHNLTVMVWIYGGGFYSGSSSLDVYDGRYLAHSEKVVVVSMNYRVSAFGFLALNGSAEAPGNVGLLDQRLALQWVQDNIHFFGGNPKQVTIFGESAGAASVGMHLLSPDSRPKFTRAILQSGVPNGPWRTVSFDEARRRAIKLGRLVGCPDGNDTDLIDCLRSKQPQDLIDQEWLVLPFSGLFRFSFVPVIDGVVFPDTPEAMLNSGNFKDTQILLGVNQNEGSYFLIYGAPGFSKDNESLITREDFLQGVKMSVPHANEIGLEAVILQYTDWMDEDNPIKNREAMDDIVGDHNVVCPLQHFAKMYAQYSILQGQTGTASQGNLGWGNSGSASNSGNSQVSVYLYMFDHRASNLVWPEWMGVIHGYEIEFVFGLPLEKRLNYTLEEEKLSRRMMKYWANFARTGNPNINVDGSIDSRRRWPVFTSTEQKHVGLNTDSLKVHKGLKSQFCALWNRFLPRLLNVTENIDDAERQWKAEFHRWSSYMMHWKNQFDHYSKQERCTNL

[7] = target: Acetylcholinesterase (Electrophorus electricus) (UniProt O42275); assay: as §2
[8] = target: Acetylcholinesterase (Electrophorus electricus) (UniProt O42275); assay: as §3
[9] = target: Acetylcholinesterase (Electrophorus electricus) (UniProt O42275); assay: as §4

T1 sequence (O42275 whole entry): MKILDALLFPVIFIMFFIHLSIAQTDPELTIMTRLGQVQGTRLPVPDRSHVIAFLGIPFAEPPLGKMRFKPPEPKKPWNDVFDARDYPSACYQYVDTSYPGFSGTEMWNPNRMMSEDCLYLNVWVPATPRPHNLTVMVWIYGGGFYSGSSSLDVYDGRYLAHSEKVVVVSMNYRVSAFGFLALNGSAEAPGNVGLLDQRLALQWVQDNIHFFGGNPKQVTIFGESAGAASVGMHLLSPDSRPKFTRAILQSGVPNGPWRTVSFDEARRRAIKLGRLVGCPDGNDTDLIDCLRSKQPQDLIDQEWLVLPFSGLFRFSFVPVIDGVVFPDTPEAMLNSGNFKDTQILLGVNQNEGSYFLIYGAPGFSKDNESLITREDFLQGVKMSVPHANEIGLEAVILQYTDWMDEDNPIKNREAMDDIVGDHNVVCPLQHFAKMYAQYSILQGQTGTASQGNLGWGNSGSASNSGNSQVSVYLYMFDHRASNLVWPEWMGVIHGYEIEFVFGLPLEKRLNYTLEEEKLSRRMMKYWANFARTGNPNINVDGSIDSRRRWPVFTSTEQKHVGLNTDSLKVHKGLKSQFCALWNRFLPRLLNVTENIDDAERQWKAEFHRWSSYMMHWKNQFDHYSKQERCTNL

| SMILES | pKa [1] | Ki [2] [µM] | Ki [3] [µM] | Ki [4] [µM] | Ki [5] [µM] | inhibition [6] | inhibition [7] | inhibition [8] | inhibition [9] |
| --- | --- | --- | --- | --- | --- | --- | --- | --- | --- |
| Nc1ccncn1 | 5.71 | 9720 | 8850 | 4240 | 5020 |  |  |  |  |
| Cc1ncc(C[n+]2csc(CCO[P@](=O)(O)OP(=O)(O)O)c2C)c(N)n1 |  | 14200 | 6740 | 58400 | 14600 |  |  |  |  |
| CCc1sc[n+](C)c1C |  | 8.34 | 5.43 | 0.935 | 11.1 |  |  |  |  |
| Cc1ncc(C[n+]2csc(CCO)c2C)c(N)n1 [THIAMINE] |  | 392 | 565 | 333 | 432 |  |  |  |  |
| Cc1ncsc1CCO |  | 8610 | 1370 | 706 | 7990 |  |  |  |  |
| C[n+]1ccsc1 |  | 286 | 939 | 2.95 | 317 |  |  |  |  |
| Cc1ncc(CS(=O)(=O)O)c(N)n1 |  |  |  |  |  | inactive | inactive | inactive | inactive |
| Cc1ncc(CN2CSC(CCO)C2C)c(N)n1 (stereo not drawn) | 7.6 | 496 | 624 | 839 | 188 |  |  |  |  |
| c1cncnc1 |  |  |  |  |  | inactive | inactive | inactive | inactive |
| Cc1ncc(CN2CSC3CCOC32C)c(N)n1 (stereo not drawn) |  | 541 |  | 237 |  |  |  |  |  |
| Cc1cscn1 |  | 6070 | 3250 | 109000 | 5420 |  |  |  |  |
| CCc1scnc1C |  | 562 | 1950 | 51100 | 468 |  |  |  |  |
| Cc1ncc(C[n+]2csc(CCOP(=O)(O)OP(=O)(O)OP(=O)(O)O)c2C)c(N)n1 |  | 10000 | 881 | 1000 | 5200 |  |  |  |  |
| Cc1ncc(C[n+]2csc(CCOP(=O)(O)O)c2C)c(N)n1 [MONOPHOSPHOTHIAMINE] |  | 11300 | 9270 | 5930 | 3010 |  |  |  |  |
| c1cscn1 |  |  |  |  |  | inactive | inactive | inactive | inactive |
| Cc1csc[n+]1C |  | 54.8 | 9.8 | 445 | 67.9 |  |  |  |  |
| Cc1c(CCO)sc[n+]1C |  | 75.6 | 1250 | 18800 | 148 |  |  |  |  |
| Cc1ncc(C)c(N)n1 | 6.5 | 163 | 260 | 551 | 111 |  |  |  |  |

From ChEMBL document CHEMBL3272069, “Inhibition of acetylcholinesterase by thiamine. A structure-function study” (J Med Chem, 1977)
